Experimental data from patent US6365201B1, “Phytodrug for management of peptic ulcer and methods of preparing and using same” (National Institute for Pharmaceutical Research and …, priority 1997, dated 2002).

Test system: small intestinal transit
Assay: Small intestinal transit in mice, charcoal meal method
Format: in vivo
Conditions: reference, dose not given
Description: Drugs that delay the small intestinal transit time have beneficial effects on ulcer patients. The effect of the Indigofera […] extract on small intestinal transit in mice was tested using the charcoal meal method.

Structure (SMILES): NC[C@H](O)c1ccc(O)c(O)c1 [Noradrenaline]
- % distance traveled: 64.6 ± 9.0%
- % inhibition: 35.4%
